The results in this text go back to US7514240B2, “EGR-EGFR complex” (Japan Science and Technology Agency, priority 2002, dated 2009).

The target of one test is T1, EGFR (A431 cell) (Homo sapiens, UniProt P00533).
T1 construct: host or cells: A431 cells
As to the kind of experiment: EGF-EGFR binding inhibition assay (Eu-EGF, A431 cells, DELFIA time-resolved fluorescence). The settings on record: Eu-EGF 5 nmol/L, compounds at 1, 3, 10 and 30 μg/mL, nonlinear least square fitting. As for the experimental part: A431 cells (human squamous cell carcinoma cells, purchased from ATCC) for use in this experiment were subcultured using a medium (hereinafter denoted as a medium) prepared by adding inactivated FBS (JRH), Penicillin-streptmycin (GIBCO), and Amphotelicin B (Sigma) at final concentrations of 10 vol %, 50 U/mL-50 μg/mL, and 1 μg/mL, respectively, to DMEM (Sigma). A431 cells suspended in the medium were inoculated into a 96-well microtiter plate (black, COSTAR) at 10,000 cells/100 μL/well, and then pre-cultured overnight in a CO2 incubator (37° C., 5% CO2). After the media within the wells had been completely removed, the wells were washed once in 50 mmol/L HEPES-HCl (pH 7.8, hereinafter denoted as a Buffer) containing 138 mmol/L NaCl, 5 mmol/L KCl, 1.2 mmol/L MgSO4, 1.2 mmol/L CaCl2, 75 μmol/L EDTA and 0.2 vol % BSA, and then a Buffer was added at 49 μL/well. Subsequently, DMSO was added at 1 μL/well, and then Eu-EGF that had been diluted with a Buffer at various concentrations were added at 50 μL/well. The plate was incubated at room temperature for 1 hour, washed 5 times with an ice-cold buffer (200 μL/well), and then a DELFIA enhancement reagent (PerkinElmer life sciences) was added at 100 μL/well. After further 30 minutes of incubation at room temperature, time-resolved fluorescence was measured using a plate reader (ARVO-sx, PerkinElmer life sciences). Excitation wavelength and emission wavelength used herein were 340 nm and 615 nm, respectively.
A value of specific binding was calculated by subtracting a measured value of non-specific binding from a value measured at each ligand concentration. […]
A representative compounds for site 1 of 2) in Example 6, a representative compounds for site 2 of 2) in Example 6, and a representative compounds for site 3 of 1) in Example 6 were subjected to this assay. […] After 30 minutes of incubation at room temperature, time-resolved fluorescence was measured using a plate reader (ARVO-sx, PerkinElmer life sciences). […] Assay was run in duplicate, and then data were processed using each average measured value. […]

In test [1] the target is T2, EGF receptor of A431 cells (Homo sapiens, UniProt P00533).
T2 construct: endogenous in cells; host or cells: A431 cells
The experiment in a line: EGFR antagonist activity using EGFR phosphorylation as an index (western blotting). It is filed as cell-based. The note with it: EGF 100 ng/mL. As for the experimental part: When EGFR is activated by binding of a ligand, intracellular regions are phosphorylated. This phosphorylation is detectable using a phosphorylated receptor-specific antibody. A431 cells were cultured (BNR-110M, ESPEC CORP.) using Dulbecco's Modified Eagle's Medium (Sigma) containing 10% fetal calf serum (JRH Bioscience) under an environment of 5% CO2 at 37° C. for 1 day. The cells were then cultured in a serum-free medium for 1 day. When agonist activity was assayed, a medium containing a sample at a concentration of 10 μg/mL was added, and then the resultant was allowed to stand for 10 minutes. Furthermore, when antagonist activity was assayed, a medium containing a sample at a concentration of 10 μg/mL or 100 μg/mL was added, and then the resultant was allowed to stand for 20 minutes. […] The media were removed, the cells were washed with cooled phosphate buffered saline (PBS, Sigma), and then a heated cell lysis buffer (125 mmol/L Tris (Wako Pure Chemical Industries, Ltd.)-hydrochloric acid (Wako Pure Chemical Industries, Ltd.) buffer (pH 6.8) containing 20% glycerol (Wako Pure Chemical Industries, Ltd.), 2% SDS (Sigma), 5% 2-Mercaptoethanol (Sigma), and 0.025 mg/mL Bromo Phenol Blue (Sigma)) was added, thereby obtaining a cell lysate solution. The obtained cell lysate was applied to 7.5% polyacrylamide gel (e-PAGEL, ATTO Corporation), and then subjected to separation by electrophoresis (AE-6400, ATTO Corporation) under a condition of 30 mA per sheet of gel using Tris/glycine/SDS buffer (Bio-Rad Laboratories, Inc.). The resultant was transferred to a polyvinylidene difluoride (PVDF) membrane (clear blot membrane-P, ATTO Corporation) under conditions of 200 mA for 1 hour using semi-dry blotting system (AE-6675, ATTO Corporation). The PVDF membrane was blocked using PBS containing 5% skim milk (Wako Pure Chemical Industries, Ltd.) at room temperature for 1 hour.

Molecules are shown by their SMILES.

T2 sequence (P00533 25-1210): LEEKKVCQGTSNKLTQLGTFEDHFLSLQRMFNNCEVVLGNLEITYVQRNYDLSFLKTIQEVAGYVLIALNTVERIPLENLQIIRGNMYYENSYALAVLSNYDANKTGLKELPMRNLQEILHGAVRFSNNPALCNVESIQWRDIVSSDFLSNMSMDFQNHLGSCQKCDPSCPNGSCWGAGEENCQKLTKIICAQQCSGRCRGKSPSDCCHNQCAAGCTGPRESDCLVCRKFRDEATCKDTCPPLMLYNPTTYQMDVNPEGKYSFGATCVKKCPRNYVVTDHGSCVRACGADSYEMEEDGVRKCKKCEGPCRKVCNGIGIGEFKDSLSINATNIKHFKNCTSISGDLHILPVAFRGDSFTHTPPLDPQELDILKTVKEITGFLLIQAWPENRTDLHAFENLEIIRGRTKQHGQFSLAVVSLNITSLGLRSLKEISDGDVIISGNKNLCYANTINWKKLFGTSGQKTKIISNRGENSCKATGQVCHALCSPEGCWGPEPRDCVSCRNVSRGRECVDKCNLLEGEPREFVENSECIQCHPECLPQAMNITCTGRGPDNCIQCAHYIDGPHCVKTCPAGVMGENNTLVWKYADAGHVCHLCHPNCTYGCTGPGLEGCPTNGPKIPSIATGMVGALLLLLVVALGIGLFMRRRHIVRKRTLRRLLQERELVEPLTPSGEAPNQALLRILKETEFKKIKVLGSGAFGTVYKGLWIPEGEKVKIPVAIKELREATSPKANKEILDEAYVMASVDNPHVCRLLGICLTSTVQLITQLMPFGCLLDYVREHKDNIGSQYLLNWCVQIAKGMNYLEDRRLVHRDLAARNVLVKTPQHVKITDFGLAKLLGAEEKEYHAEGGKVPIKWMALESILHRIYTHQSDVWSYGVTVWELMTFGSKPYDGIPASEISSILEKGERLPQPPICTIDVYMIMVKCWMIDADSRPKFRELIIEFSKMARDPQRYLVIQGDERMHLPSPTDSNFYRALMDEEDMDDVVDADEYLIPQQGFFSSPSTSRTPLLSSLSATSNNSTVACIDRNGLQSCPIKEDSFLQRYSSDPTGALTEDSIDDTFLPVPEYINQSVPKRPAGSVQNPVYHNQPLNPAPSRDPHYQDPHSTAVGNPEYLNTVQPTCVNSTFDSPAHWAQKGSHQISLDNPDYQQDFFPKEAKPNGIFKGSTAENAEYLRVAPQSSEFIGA
T1 sequence (P00533 25-1210): as above

A word on the IC50: it is the concentration at which inhibition is half-maximal. Higher therefore signals weaker potency in that assay. In turn, `CCc1cc2c(cc1C(=O)CSc1ncccc1C(=O)O)C(C)(C)CCC2(C)C` [2-[2-(3-ethyl-5,5,8,8-tetramethyl-5,6,7,8-tetrahydro-naphthalene-2-yl)-2-oxo-ethylsulfanyl]-nicotinic acid] had an IC50 at EGFR (A431 cell) of 57.8 µM. Further, the “inhibition of activation of the EGF receptor due to EGF (EGFR phosphorylation)” value in test [1] (sample 100 μg/mL) is recorded as “inhibited activation of the EGF receptor”.
With `CCCCCCSc1nc2c(c(=O)[nH]c(=O)n2C)n1CCC` [8-hexylsulfanyl-3-methyl-7-propyl-3,7-dihydro-purine-2,6-dione], the IC50 on EGFR (A431 cell) is 40.1 µM. Moreover, the “inhibition of activation of the EGF receptor due to EGF (EGFR phosphorylation)” value in test [1] (sample 10 μg/mL) is reported as “inhibited activation of the EGF receptor”.
On the same counts, the results for `CN1CCN(CCCN2c3ccccc3Sc3ccc(C(F)(F)F)cc32)CC1.Cl.Cl` [10-[3-(4-methyl-piperazine-1-yl)-propyl]-2-trifluoromethyl-10H-phenothiazine dihydrochloride] are 16.7 µM and “inhibited activation of the EGF receptor”.
